Data from PubChem BioAssay (NCI).
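Briefly, cells in 96-well plates were exposed to five compound concentrations for 48 h, and endpoints were estimated by linear interpolation. GI50 = concentration required for 50% inhibition of growth. Definition used: TGI = concentration required for complete inhibition of growth.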

How the values were obtained:
Assay in all cases: growth of human tumour cells (NCI), 48 h
PC-3 prostate = test system: PC-3 prostate
MDA-MB-435 = test system: MDA-MB-435
CAKI-1 renal = test system: CAKI-1 renal
A549 NSCLC = test system: A549 NSCLC
HS 578T breast = test system: HS 578T breast
DLD-1 colon = test system: DLD-1 colon
KM20L2 colon = test system: KM20L2 colon
HCT-15 colon = test system: HCT-15 colon
M19-MEL melanoma = test system: M19-MEL melanoma
DMS 273 small cell lung = test system: DMS 273 small cell lung
DMS 114 small cell lung = test system: DMS 114 small cell lung
HOP-18 NSCLC = test system: HOP-18 NSCLC
XF 498 CNS = test system: XF 498 CNS

**Q.** With `CCOC(=O)c1sc2nc(SC)nc(Nc3ccc4c(c3)OCCO4)c2c1N` as the molecule, how does the TGI (PC-3 prostate) read?
**A.** 29.7 µM

**Q.** And the TGI (MDA-MB-435)?
**A.** 42.7 µM

**Q.** What about the TGI (CAKI-1 renal) of the same molecule?
**A.** 49.2 µM

**Q.** What about the TGI (A549 NSCLC) of the same molecule?
**A.** > 100 µM

**Q.** Which GI50 (PC-3 prostate) does the source give for `COc1ccc2c(c1)c(-c1nc(-c3c[nH]c4ncccc34)cs1)cn2CCCCN1CCCCC1` here?
**A.** 1.52 µM

**Q.** What about the TGI (PC-3 prostate) of the same molecule?
**A.** 2.93 µM

**Q.** And the GI50 (HS 578T breast)?
**A.** 1.66 µM

**Q.** What about the TGI (HS 578T breast) of the same molecule?
**A.** 4.38 µM

**Q.** Which TGI (DLD-1 colon) does the source give for `Nc1nc(SCc2ccccc2Cl)c2[nH]cnc2n1` here?
**A.** > 100 µM

**Q.** And the TGI (KM20L2 colon)?
**A.** > 100 µM

**Q.** And the TGI (HCT-15 colon)?
**A.** > 100 µM

**Q.** And the TGI (M19-MEL melanoma)?
**A.** > 100 µM

**Q.** And the TGI (DMS 273 small cell lung)?
**A.** > 100 µM

**Q.** And the TGI (A549 NSCLC)?
**A.** > 100 µM

**Q.** What about the TGI (DMS 114 small cell lung) of the same molecule?
**A.** > 100 µM

**Q.** What does the source list for `CNC(C)C(O)c1ccc2oc3cc(=O)c4ccccc4c-3nc2c1` (stereo unspecified)?
**A.** TGI (PC-3 prostate): > 100 µM; TGI (HCT-15 colon): > 100 µM; TGI (HS 578T breast): 8.48 µM; TGI (MDA-MB-435): 3.54 µM; TGI (CAKI-1 renal): 29.6 µM; TGI (A549 NSCLC): > 100 µM

**Q.** How did the TGI (HOP-18 NSCLC) turn out when `COc1ccc(C2COc3c(ccc(O)c3C)C2)cc1OC` (stereo unspecified) was run?
**A.** 30.8 µM

**Q.** What about the TGI (DLD-1 colon) of the same molecule?
**A.** > 200 µM

**Q.** And the TGI (KM20L2 colon)?
**A.** > 200 µM

**Q.** What about the TGI (HCT-15 colon) of the same molecule?
**A.** > 200 µM

**Q.** What about the TGI (M19-MEL melanoma) of the same molecule?
**A.** > 200 µM

**Q.** And the TGI (DMS 273 small cell lung)?
**A.** 199 µM

**Q.** What about the TGI (CAKI-1 renal) of the same molecule?
**A.** > 200 µM

**Q.** And the TGI (XF 498 CNS)?
**A.** 124 µM

**Q.** What about the TGI (A549 NSCLC) of the same molecule?
**A.** > 167 µM

**Q.** What about the TGI (DMS 114 small cell lung) of the same molecule?
**A.** 196 µM

**Q.** Which results are given for `CCCn1cnc2c(SCc3ccc(Cl)cc3)nc(N)nc21`?
**A.** TGI (PC-3 prostate): 57.8 µM; TGI (HCT-15 colon): > 100 µM; TGI (HS 578T breast): > 100 µM; TGI (MDA-MB-435): 57.8 µM; TGI (CAKI-1 renal): 82 µM; TGI (A549 NSCLC): > 100 µM

**Q.** Which TGI (HOP-18 NSCLC) does the source give for `C=CCCC1(C)CCCNC1=S` (stereo unspecified) here?
**A.** > 100 µM

**Q.** And the TGI (DLD-1 colon)?
**A.** > 100 µM

**Q.** What about the TGI (KM20L2 colon) of the same molecule?
**A.** > 100 µM

**Q.** And the TGI (HCT-15 colon)?
**A.** > 100 µM

**Q.** And the TGI (DMS 273 small cell lung)?
**A.** > 100 µM

**Q.** And the TGI (XF 498 CNS)?
**A.** > 100 µM

**Q.** And the TGI (A549 NSCLC)?
**A.** > 100 µM

**Q.** And the TGI (DMS 114 small cell lung)?
**A.** > 100 µM

**Q.** With `CN(C)CCNC(=O)c1cccc2[nH]c(-c3ccccn3)nc12` as the molecule, how does the TGI (HOP-18 NSCLC) read?
**A.** > 87 µM

**Q.** And the TGI (DLD-1 colon)?
**A.** > 100 µM

**Q.** And the TGI (KM20L2 colon)?
**A.** > 100 µM

**Q.** What about the TGI (HCT-15 colon) of the same molecule?
**A.** > 100 µM

**Q.** And the TGI (M19-MEL melanoma)?
**A.** > 91.8 µM

**Q.** What about the TGI (DMS 273 small cell lung) of the same molecule?
**A.** > 72.2 µM

**Q.** What about the TGI (CAKI-1 renal) of the same molecule?
**A.** 78.1 µM

**Q.** And the TGI (XF 498 CNS)?
**A.** > 100 µM

**Q.** What about the TGI (A549 NSCLC) of the same molecule?
**A.** > 100 µM

**Q.** What about the TGI (DMS 114 small cell lung) of the same molecule?
**A.** > 80.2 µM

**Q.** For `Cc1nc2ccc(S(=O)(=O)Nc3nccs3)cc2c(=O)n1NS(=O)(=O)c1nccs1`, which TGI (PC-3 prostate) is on record?
**A.** > 100 µM

**Q.** What about the TGI (HCT-15 colon) of the same molecule?
**A.** > 100 µM

**Q.** What about the TGI (HS 578T breast) of the same molecule?
**A.** > 100 µM

**Q.** What about the TGI (MDA-MB-435) of the same molecule?
**A.** > 100 µM

**Q.** What about the TGI (CAKI-1 renal) of the same molecule?
**A.** > 100 µM

**Q.** Which results are given for `COc1ccc(/C=N/n2cnc3c(c2=O)SC(=C(C#N)C#N)N3c2ccccc2)cc1`?
**A.** TGI (HOP-18 NSCLC): > 100 µM; TGI (DLD-1 colon): > 100 µM; TGI (M19-MEL melanoma): > 100 µM; TGI (A549 NSCLC): > 100 µM

**Q.** `O=C(N[C@@H](Cc1coc2ccccc12)B(O)O)[C@@H]1C[C@H]2CC[C@@H]1O2` was tested. Which GI50 (PC-3 prostate) did it give?
**A.** 41.2 µM

**Q.** And the TGI (PC-3 prostate)?
**A.** > 100 µM

**Q.** And the GI50 (HCT-15 colon)?
**A.** 4.54 µM

**Q.** And the TGI (HCT-15 colon)?
**A.** 84.9 µM

**Q.** And the GI50 (HS 578T breast)?
**A.** 3.81 µM

**Q.** What about the TGI (HS 578T breast) of the same molecule?
**A.** 66.6 µM

**Q.** And the GI50 (MDA-MB-435)?
**A.** 1.76 µM

**Q.** What about the TGI (MDA-MB-435) of the same molecule?
**A.** 4.04 µM

**Q.** What about the GI50 (CAKI-1 renal) of the same molecule?
**A.** 4.47 µM

**Q.** And the TGI (CAKI-1 renal)?
**A.** > 100 µM

**Q.** What about the GI50 (A549 NSCLC) of the same molecule?
**A.** 7.58 µM

**Q.** What about the TGI (A549 NSCLC) of the same molecule?
**A.** > 100 µM
